US3960833A, “Butirosin A 3",5"-O-isopropylidene derivatives” (Bristol-Myers Company, priority 1975, dated 1976)
Converted amounts (≈) assume the structure as drawn.

Key:
Type in all cases: cell-based
E. coli A20107 = test: MIC by Steers agar-dilution method on Mueller-Hinton medium; conditions: Escherichia coli; E. coli A20107; Mueller-Hinton medium; read-out: MIC
Description: (§1) Illustrated below is a table showing the minimal inhibitory concentrations (MIC's) of butirosin A, 4'-deoxybutirosin A and compound 11 (BB-K186) against a variety of gram-positive and gram-negativebacteria as obtained by the Steers agar-dilution method on Mueller-Hinton medium.

E. coli A20732 = test: as above; conditions: Escherichia coli; E. coli A20732; Mueller-Hinton medium; read-out: MIC
Description: as §1

E. coli A20895 = test: as above; conditions: Escherichia coli; E. coli A20895; Mueller-Hinton medium; read-out: MIC
Description: as §1

E. coli JR35/C600 = test: as above; conditions: Escherichia coli
Description: as §1

E. coli JR66/W677 = test: as above; conditions: Escherichia coli
Description: as §1

E. coli ML1630 = test: as above; conditions: Escherichia coli; E. coli ML1630; Mueller-Hinton medium; read-out: MIC
Description: as §1

E. coli NIHJ = test: as above; conditions: Escherichia coli; E. coli NIHJ; Mueller-Hinton medium; read-out: MIC
Description: as §1

E. coli NR79/W677 = test: as above; conditions: Escherichia coli
Description: as §1

E. coli PO1495 = test: as above; conditions: Escherichia coli
Description: as §1

E. coli R5 = test: as above; conditions: Escherichia coli; E. coli R5; Mueller-Hinton medium; read-out: MIC
Description: as §1

Ent. cloacae A20364 = test: as above; conditions: Enterobacter cloacae; Ent. cloacae A20364; Mueller-Hinton medium; read-out: MIC
Description: as §1

Ent. cloacae A21006 = test: as above; conditions: Enterobacter cloacae; Ent. cloacae A21006; Mueller-Hinton medium; read-out: MIC
Description: as §1

K. pneumoniae 22-3038 = test: as above; conditions: Klebsiella pneumoniae, 223038; K. pneumoniae 22-3038; Mueller-Hinton medium; read-out: MIC
Description: as §1

K. pneumoniae D11 = test: as above; conditions: Klebsiella pneumoniae; K. pneumoniae D11; Mueller-Hinton medium; read-out: MIC
Description: as §1

Pr. mirabilis A9554 = test: as above; conditions: Proteus mirabilis; Pr. mirabilis A9554; Mueller-Hinton medium; read-out: MIC
Description: as §1

Pr. morganii A20031 = test: as above; conditions: Morganella morganii; Pr. morganii A20031; Mueller-Hinton medium; read-out: MIC
Description: as §1

Pr. vulgaris A9436 = test: as above; conditions: Proteus vulgaris; Pr. vulgaris A9436; Mueller-Hinton medium; read-out: MIC
Description: as §1

Prov. stuartii A20894 = test: as above; conditions: Providencia stuartii; Prov. stuartii A20894; Mueller-Hinton medium; read-out: MIC
Description: as §1

Ps. aeruginosa A20601 = test: as above; conditions: Pseudomonas aeruginosa; Ps. aeruginosa A20601; Mueller-Hinton medium; read-out: MIC
Description: as §1

Ps. aeruginosa A20635 = test: as above; conditions: Pseudomonas aeruginosa; Ps. aeruginosa A20635; Mueller-Hinton medium; read-out: MIC
Description: as §1

Ps. aeruginosa A20896 = test: as above; conditions: Pseudomonas aeruginosa; Ps. aeruginosa A20896; Mueller-Hinton medium; read-out: MIC
Description: as §1

Ps. aeruginosa A9930 = test: as above; conditions: Pseudomonas aeruginosa; Ps. aeruginosa A9930; Mueller-Hinton medium; read-out: MIC
Description: as §1

Ps. aeruginosa GN-315 = test: as above; conditions: Pseudomonas aeruginosa, GN315; Ps. aeruginosa GN-315; Mueller-Hinton medium; read-out: MIC
Description: as §1

Ps. aeruginosa No. 130 = test: as above; conditions: Pseudomonas aeruginosa; Ps. aeruginosa No. 130; Mueller-Hinton medium; read-out: MIC
Description: as §1

Pseudomonas sp. A20621 = test: as above; conditions: Pseudomonas sp. A20621; Mueller-Hinton medium; read-out: MIC
Description: as §1

S. aureus A20239 = test: as above; conditions: Staphylococcus aureus; S. aureus A20239; Mueller-Hinton medium; read-out: MIC
Description: as §1

S. aureus D133 = test: as above; conditions: Staphylococcus aureus; S. aureus D133; Mueller-Hinton medium; read-out: MIC
Description: as §1

S. aureus D137 = test: as above; conditions: Staphylococcus aureus; S. aureus D137; Mueller-Hinton medium; read-out: MIC
Description: as §1

S. aureus D193 = test: as above; conditions: Staphylococcus aureus; S. aureus D193; Mueller-Hinton medium; read-out: MIC
Description: as §1

S. aureus Smith = test: as above; conditions: Staphylococcus aureus; S. aureus Smith; Mueller-Hinton medium; read-out: MIC
Description: as §1

Ser. marcescens A20019 = test: as above; conditions: Serratia marcescens; Ser. marcescens A20019; Mueller-Hinton medium; read-out: MIC
Description: as §1

Ser. marcescens A21247 = test: as above; conditions: Serratia marcescens; Ser. marcescens A21247; Mueller-Hinton medium; read-out: MIC
Description: as §1

[1] = test system: a variety of gram-positive and gram-negative bacteria; test: Antibacterial activity overall (MIC, Steers agar-dilution method); conditions: in words
Description: as §1

Pseudomonas aeruginosa = test: Antibacterial activity against Pseudomonas aeruginosa (MIC, Steers agar-dilution method); conditions: in words
Description: as §1

In the case of `NCC[C@H](O)C(=O)N[C@@H]1C[C@H](N)[C@@H](O[C@H]2O[C@H](CN)[C@@H](O)C[C@H]2N)[C@H](O[C@@H]2O[C@H](CO)[C@H](O)[C@H]2O)[C@H]1O` [Compound 11, 3'-deoxybutirosin A], the MIC (E. coli A20107) is reported as 3.1 µg/mL (≈ 5.75 µM), the MIC (E. coli A20732) is reported as 1.6 µg/mL (≈ 2.97 µM) and the MIC (E. coli A20895) is reported as 3.1 µg/mL (≈ 5.75 µM). The MIC (E. coli JR35/C600) was 0.8 µg/mL (≈ 1.48 µM), the MIC (E. coli JR66/W677) was 3.1 µg/mL (≈ 5.75 µM) and the MIC (E. coli ML1630) was 3.1 µg/mL (≈ 5.75 µM). For the same molecule, the MIC (E. coli NIHJ) was 1.6 µg/mL (≈ 2.97 µM), the MIC (E. coli NR79/W677) was greater than 100 µg/mL and the MIC (E. coli PO1495) was 1.6 µg/mL (≈ 2.97 µM). For the same molecule, the MIC (E. coli R5) was 3.1 µg/mL (≈ 5.75 µM), the MIC (Ent. cloacae A20364) was 1.6 µg/mL (≈ 2.97 µM) and the MIC (Ent. cloacae A21006) was 3.1 µg/mL (≈ 5.75 µM). For the same molecule, the MIC (K. pneumoniae 22-3038) was 3.1 µg/mL (≈ 5.75 µM), the MIC (K. pneumoniae D11) was 0.8 µg/mL (≈ 1.48 µM) and the MIC (Pr. mirabilis A9554) was 1.6 µg/mL (≈ 2.97 µM). For the same molecule, the MIC (Pr. morganii A20031) was 3.1 µg/mL (≈ 5.75 µM), the MIC (Pr. vulgaris A9436) was 0.4 µg/mL (≈ 0.741 µM) and the MIC (Prov. stuartii A20894) was 25 µg/mL (≈ 46.3 µM). It also gave an MIC (Ps. aeruginosa A20601) of 12.5 µg/mL (≈ 23.2 µM), an MIC (Ps. aeruginosa A20635) of 25 µg/mL (≈ 46.3 µM) and an MIC (Ps. aeruginosa A20896) of 50 µg/mL (≈ 92.7 µM). For the same molecule, the MIC (Ps. aeruginosa A9930) was 0.8 µg/mL (≈ 1.48 µM), the MIC (Ps. aeruginosa GN-315) was greater than 100 µg/mL and the MIC (Ps. aeruginosa No. 130) was 12.5 µg/mL (≈ 23.2 µM). It also gave an MIC (Pseudomonas sp. A20621) of 100 µg/mL (≈ 185 µM), an MIC (S. aureus A20239) of 3.1 µg/mL (≈ 5.75 µM) and an MIC (S. aureus D133) of 3.1 µg/mL (≈ 5.75 µM). For the same molecule, the MIC (S. aureus D137) was 12.5 µg/mL (≈ 23.2 µM), the MIC (S. aureus D193) was 1.6 µg/mL (≈ 2.97 µM) and the MIC (S. aureus Smith) was 0.8 µg/mL (≈ 1.48 µM). For the same molecule, the MIC (Ser. marcescens A20019) was 6.3 µg/mL (≈ 11.7 µM), the MIC (Ser. marcescens A21247) was 3.1 µg/mL (≈ 5.75 µM) and the “antibacterial activity compared with butirosin A and 4'-deoxybutirosin A” value [1] was “good antibacterial activity that in many respects is superior to butirosin A itself and in some respects superior to 4'-deoxybutirosin A”. The “antibacterial activity compared with butirosin A and 4'-deoxybutirosin A” value ([1]; listed as compound 11) was “equal to or superior in most respects to butirosin A and 4'-deoxybutirosin A” and the “activity against Pseudomonas aeruginosa” value (Pseudomonas aeruginosa) was “particularly improved in its activity against Pseudomonas aeruginosa”.
